In patent US6737383B1, “Herbicidal oxadiazolidines” (priority 1999, dated 2004):

Legend:
Settings in all cases: Preemergence
[1] = system: pigweed; test: Test B pre/postemergence pigweed; type: in vivo, Amaranthus retroflexus
Method in brief: (§1)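 Test chemicals in a non-phytotoxic solvent mixture with surfactant were sprayed preemergence onto planted seeds and postemergence onto plants 2 to 18 cm tall (1- to 4-leaf stage). After twelve to sixteen days in a greenhouse, injury was visually rated against untreated controls from 0 (no effect) to 10 (complete control).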

[2] = system: bedstraw; test: Test B pre/postemergence bedstraw; type: in vivo, Galium aparine
Method in brief: as §1

[3] = system: purple nutsedge; test: Test B pre/postemergence purple nutsedge; type: in vivo, Cyperus rotundus
Method in brief: as §1

[4] = system: giant foxtail; test: Test B pre/postemergence giant foxtail; type: in vivo, Setaria faberii
Method in brief: as §1

[5] = system: surinam grass; test: Test B pre/postemergence surinam grass; type: in vivo, Brachiaria decumbens
Method in brief: as §1

[6] = system: wheat; test: Test B pre/postemergence wheat; type: in vivo, Triticum aestivum
Method in brief: as §1

[7] = system: blackgrass; test: Test B pre/postemergence blackgrass; type: in vivo, Alopecurus myosuroides
Method in brief: as §1

[8] = system: corn; test: Test B pre/postemergence corn; type: in vivo, Zea mays
Method in brief: as §1

[9] = system: rape; test: Test B pre/postemergence rape; type: in vivo, Brassica napus
Method in brief: as §1

[10] = system: cocklebur; test: Test B pre/postemergence cocklebur; type: in vivo, Xanthium strumarium
Method in brief: as §1

[11] = system: sugar beet; test: Test B pre/postemergence sugar beet; type: in vivo, Beta vulgaris
Method in brief: as §1

[12] = system: wild oat; test: Test B pre/postemergence wild oat; type: in vivo, Avena fatua
Method in brief: as §1

[13] = system: soybean; test: Test B pre/postemergence soybean; type: in vivo, Glycine max
Method in brief: as §1

[14] = system: crabgrass; test: Test B pre/postemergence crabgrass; type: in vivo, Digitaria sanguinalis
Method in brief: as §1

[15] = system: morningglory; test: Test B pre/postemergence morningglory; type: in vivo, Ipomoea hederacea
Method in brief: as §1

[16] = system: velvetleaf; test: Test B pre/postemergence velvetleaf; type: in vivo, Abutilon theophrasti
Method in brief: as §1

[17] = Rate 62 g/ha, scale of 0 to 10 where 0 is no effect and 10 is complete control
[18] = Rate 125 g/ha, scale of 0 to 10 where 0 is no effect and 10 is complete control
[19] = Rate 250 g/ha, scale 0 (no effect) to 10 (complete control)
[20] = Rate 500 g/ha, scale 0 to 10 (0 no effect, 10 complete control)

Compound: COC(CCl)n1c(=O)on(C(=O)N(c2ccccc2)C(C)C)c1=O (stereo not shown) [Compound 735]
- Redroot pigweed plant response rating [1, 17]: 5
- Plant response rating, Redroot pigweed [1, 18]: 7
- Redroot pigweed plant response rating [1, 19]: 8
- Redroot pigweed plant response rating [1, 20]: 9
- Bedstraw plant response rating [2, 17]: 0
- Plant response rating, Bedstraw [2, 18]: 0
- Bedstraw plant response rating [2, 19]: 0
- Bedstraw plant response rating [2, 20]: 0
- Nutsedge plant response rating [3, 17]: 0
- Nutsedge plant response rating [3, 19]: 0
- Giant foxtail plant response rating [4, 17]: 9
- Plant response rating, Giant foxtail [4, 18]: 10
- Giant foxtail plant response rating [4, 19]: 10
- Giant foxtail plant response rating [4, 20]: 10
- B. signalgrass plant response rating [5, 17]: 7
- Plant response rating, B. signalgrass [5, 18]: 8
- B. signalgrass plant response rating [5, 19]: 9
- B. signalgrass plant response rating [5, 20]: 10
- Wheat plant response rating [6, 17]: 0
- Plant response rating, Wheat [6, 18]: 0
- Wheat plant response rating [6, 20]: 2
- Blackgrass plant response rating [7, 17]: 8
- Plant response rating, Blackgrass [7, 18]: 10
- Blackgrass plant response rating [7, 19]: 10
- Blackgrass plant response rating [7, 20]: 10
- Corn plant response rating [8, 17]: 0
- Plant response rating, Corn [8, 18]: 6
- Corn plant response rating [8, 19]: 8
- Corn plant response rating [8, 20]: 9
- Rape plant response rating [9, 17]: 1
- Plant response rating, Rape [9, 18]: 6
- Rape plant response rating [9, 19]: 8
- Rape plant response rating [9, 20]: 8
- Cocklebur plant response rating [10, 17]: 0
- Plant response rating, Cocklebur [10, 18]: 0
- Cocklebur plant response rating [10, 19]: 0
- Cocklebur plant response rating [10, 20]: 0
- Sugarbeets plant response rating [11, 17]: 0
- Plant response rating, Sugarbeets [11, 18]: 2
- Sugarbeets plant response rating [11, 19]: 6
- Sugarbeets plant response rating [11, 20]: 7
- Wild oats plant response rating [12, 17]: 6
- Plant response rating, Wild oats [12, 18]: 8
- Wild oats plant response rating [12, 19]: 8
- Wild oats plant response rating [12, 20]: 10
- Soybean plant response rating [13, 17]: 0
- Plant response rating, Soybean [13, 18]: 0
- Soybean plant response rating [13, 19]: 0
- Soybean plant response rating [13, 20]: 0
- Crabgrass plant response rating [14, 17]: 10
- Plant response rating, Crabgrass [14, 18]: 10
- Crabgrass plant response rating [14, 19]: 10
- Crabgrass plant response rating [14, 20]: 10
- Morningglory plant response rating [15, 17]: 0
- Plant response rating, Morningglory [15, 18]: 0
- Morningglory plant response rating [15, 19]: 2
- Morningglory plant response rating [15, 20]: 2
- Velvetleaf plant response rating [16, 17]: 0
- Plant response rating, Velvetleaf [16, 18]: 0
- Velvetleaf plant response rating [16, 19]: 3
- Velvetleaf plant response rating [16, 20]: 3
